Results reported in US20110257176A1, “NITROGEN HETEROCYCLE DERIVATIVES AS PROTEASOME MODULATORS” (INSTITUT NATIONAL DE LA SANTE ET DE LA RECHERCHE MEDICALE …, priority 2008, published 2011).
Where a SMILES comes first, the peptide text is derived from it. The star is where a group is joined. Cbz = O=C(OCc1ccccc1)*

Tests used:
[1] = molecular target: T1, human erythrocyte 20S proteasome, post-acid (PA) activity (Homo sapiens, UniProt P28072); test: 20S proteasome post-acid (PA) activity, Z-LLE-βNA hydrolysis; format: biochemical; design: key: NI: No Inhibition; conditions: screened at 100 and 50 μM
T1 construct: three activities of human erythrocyte 20S proteasome; from tissue; host or cells: human erythrocytes
Method: (§1) Rabbit erythrocyte 20S proteasome was obtained from Boston Biochem, Cambridge, USA. The fluorogenic substrates Suc-LLVY-AMC, Boc-LRR-AMC and Z-LLE-βNA used to measure the proteasome activities CT-L, T-L and PA respectively were purchased from Bachem (France). Other reagents and solvents were purchased from commercial sources. Fluorescence was measured using a BMG Fluostar microplate reader.
(§2) The inhibitory activity of compounds is expressed as IC50, which corresponds to the concentration of proteasome inhibitor leading to a loss of activity of 50%. The values of IC50 were calculated by fitting the experimental data to equation 1: % Inhibition=100×(1−Vi/V0)=100 [I]0/(IC50+[I]0), or equation 2: % Inhibition=100 [I]0^nH/(IC50^nH+[I]0^nH), where Vi is the initial rate in the presence of the inhibitor, V0 is the initial rate in the absence of the inhibitor, [I]0 is the inhibitor concentration, nH is the Hill number (FIG. 1).
(§3) Compounds 24, 25 and 31-35 were tested in duplicate against three activities of human erythrocyte 20S proteasome at 100 and 50 μM in the appropriate buffer (pH 7.5): 20 mM Tris HCl, 10% (v/v) glycerol, 0.01% (w/v) SDS and 2% DMSO (CT-L and PA activities); 20 mM Tris HCl, 10% (v/v) glycerol, and 2% DMSO (T-L activity). The inhibitory activities were analyzed as described above for compounds 1-23.

[2] = molecular target: T2, human erythrocyte 20S proteasome, trypsin-like (T-L) activity (Homo sapiens, UniProt Q99436); test: 20S proteasome trypsin-like (T-L) activity, Boc-LRR-AMC hydrolysis; format: biochemical; design: key to Inhibition of trypsin-like activity (NI): NI: No Inhibition; conditions: screened at 100 and 50 μM
T2 construct: three activities of human erythrocyte 20S proteasome; from tissue; host or cells: human erythrocytes
Method: as §1, §2, §3

HEK-293 cells = test: Cell viability, XTT assay, HEK-293; format: cell-based; conditions: Homo sapiens, HEK293, 48 h, read-out: EC50, concentration inhibiting cell growth by 50%
Method: (§4) The cell survival was determined with the XTT assay. Human cells (HeLa from cervical carcinoma and HEK-293 from epithelial kidney) were obtained from Invitrogen (Cergy-Pontoise, France). The cells were grown at 37° C. in DMEM supplemented with 10% fetal bovine serum (Invitrogen) in a humidified atmosphere of 5% CO2 and 95% air.
(§5) 5×10^3 cells in 100 μL culture medium were exposed for 48 h in 96-well plates to increasing concentrations of compounds: 5-100 μM, final concentration of DMSO is 1% (v/v). The culture medium is then replaced by 100 μL of DMEM F12 culture medium devoid of phenol red and containing a mixture of XTT (0.3 mg/mL) and PMS (8.3 nM) (XTT: 2,3-bis[2-methoxy-4-nitro-5-sulfophenyl-2H-tetrazolium-5-carboxyanilide sodium; PMS: phenazine methosulfate, both purchased from Sigma, Saint Quentin Fallavier, France). Cells were then incubated for 3 h at 37° C.
(§6) During this incubation, the mitochondrial deshydrogenases of viable cells hydrolyzed the tetrazolium cycle of XTT, leading to orange formazan crystals soluble in aqueous solution.
(§7) The orange color was measured at 485 nm using a BMG Fluostar microplate reader.
(§8) In control experiments, cells were treated by the vehicule (DMSO) at the same concentration than that used for the inhibitors.
The cytotoxicity activity of drags was expressed as the concentration inhibiting cell growth by 50% (EC50) calculated from the survival curves. The experimental data are fitted to the following equation, describing the relationship between % survival and drug concentration (C):
% cell survival=100−(Emax×C^n)/(C^n+EC50^n)
where C is the drug concentration; Emax is the maximum drug effect (%); EC50 is the concentration that produces one-half of the maximum effect; and n is the Hill constant, which describes the shape of the curve.

[3] = molecular target: T3, human erythrocyte 20S proteasome, chymotrypsin-like (CT-L) activity (Homo sapiens, UniProt P28074); test: 20S proteasome chymotrypsin-like (CT-L) activity, Suc-LLVY-AMC hydrolysis; format: biochemical; conditions: pH 7.5
T3 construct: three activities of human erythrocyte 20S proteasome; from tissue; host or cells: human erythrocytes
Method: as §1, §2, §3

[4] = system: rabbit reticulocyte 20S proteasome, trypsin-like (T-L) activity; test: 20S proteasome trypsin-like (T-L) activity, Boc-LRR-AMC hydrolysis; format: biochemical; design: key to Inhibition of trypsin-like activity (NI): NI: No Inhibition; conditions: rabbit 20S proteasome; for Inhibition of trypsin-like activity (NI): screened at 100 μM and 50 μM
Method: as §1
(§9) Compounds 1-23 were tested for their potential to inhibit the CT-L, T-L and PA activities of the rabbit reticulocyte 20S proteasome. Enzyme activities were determined by monitoring the hydrolysis of the appropriate fluorogenic substrate (λexc=360, λem=465 nm for AMC substrates, and λexc=340, λem=405 nm for the βNA substrate) for 1 h at 37° C.
(§10) In the in vitro screening, each compound was tested in duplicate against the three activities, at 100 μM and 50 μM in the corresponding buffer. The buffer were (pH 8): 50 mM Tris, 150 mM NaCl, 10% (v/v) glycerol, 0.025% (w/v) SDS, and 3% (v/v) DMSO (CT-L and PA activities); 50 mM Tris, 150 mM NaCl, 10% (v/v) glycerol, and 3% (v/v) DMSO (T-L activity).
as §2

HeLa cells = test: Cell viability, XTT assay, HeLa; format: cell-based; conditions: Homo sapiens, 48 h, read-out: EC50, concentration inhibiting cell growth by 50%
Method: as §4, §5, §6, §7, §8
The cytotoxicity activity of drags was expressed as the concentration inhibiting cell growth by 50% (EC50) calculated from the survival curves. […]

[5] = molecular target: T4, rabbit reticulocyte 20S proteasome, chymotrypsin-like (CT-L) activity (UniProt G1T4Q9); test: 20S proteasome chymotrypsin-like (CT-L) activity, Suc-LLVY-AMC hydrolysis; format: biochemical; conditions: rabbit 20S proteasome, pH 8, 37° C.
T4 construct: IC50 on chymotrypsin-like activity; other: rabbit 20S proteasome, pH 8, 37° C; Rabbit erythrocyte 20S proteasome was obtained from Boston Biochem, Cambridge, USA
Method: as §1, §9, §10, §2

[6] = molecular target: rabbit reticulocyte 20S proteasome, post-acid (PA) activity (Oryctolagus cuniculus, UniProt G1T235); test: 20S proteasome post-acid (PA) activity, Z-LLE-βNA hydrolysis; format: biochemical; design: key to Inhibition of post-acid activity (NI): NI: No Inhibition; conditions: rabbit 20S proteasome; for Inhibition of post-acid activity (NI): screened at 100 μM and 50 μM
Method: as §1, §9, §10, §2

[7] = molecular target: T5, rabbit reticulocyte 20S proteasome, chymotrypsin-like (CT-L) activity (Oryctolagus cuniculus, UniProt G1T4Q9); test: 20S proteasome chymotrypsin-like (CT-L) activity, Suc-LLVY-AMC hydrolysis; format: biochemical; conditions: rabbit 20S proteasome, pH 8, 37° C.
T5 construct: IC50 on chymotrypsin-like activity; other: rabbit 20S proteasome, pH 8, 37° C; Rabbit erythrocyte 20S proteasome was obtained from Boston Biochem, Cambridge, USA
T5 sequence (G1T4Q9 1-263): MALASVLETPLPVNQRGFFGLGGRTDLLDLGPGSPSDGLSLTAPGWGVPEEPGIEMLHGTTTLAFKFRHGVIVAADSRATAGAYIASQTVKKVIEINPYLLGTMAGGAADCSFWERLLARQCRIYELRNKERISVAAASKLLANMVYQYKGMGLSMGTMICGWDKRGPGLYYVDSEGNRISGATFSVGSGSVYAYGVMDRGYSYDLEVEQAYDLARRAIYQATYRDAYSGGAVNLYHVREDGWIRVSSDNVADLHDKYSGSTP
Method: as §1, §9, §10, §2

human cathepsin B = human cathepsin B (Homo sapiens, UniProt P07858); test: Selectivity: inhibition of cathepsin B; format: biochemical; conditions: 100 μM compound
[8] = system: cellular proteasome in HEK-293 cells; test: Inhibition of proteasome in a cell assay: accumulation of ubiquitinylated proteins (Western blot); format: cell-based, Human; conditions: 16 h, 10 μM
Method: Indeed, if the proteasomes are inhibited, in particular the proteasome 26S, the degradation of ubiquitinalyted proteins should be blocked, and those proteins should accumulate.
240 000 HEK-293 cells were incubated for 16 h, in presence of oxadiazole derivatives at the concentration of 10 μM.
After extraction of the proteins (centrifugation of lysed cells), the concentration of proteins in the sample was determined with the BCA (Bicinchoninic Acid) protein Assay.
3 μg of proteins for each sample were deposited into a SDS-PAGE gel at 8%.

Chain of rabbit reticulocyte 20S proteasome, post-acid (PA) activity (G1T235 entry or part of it): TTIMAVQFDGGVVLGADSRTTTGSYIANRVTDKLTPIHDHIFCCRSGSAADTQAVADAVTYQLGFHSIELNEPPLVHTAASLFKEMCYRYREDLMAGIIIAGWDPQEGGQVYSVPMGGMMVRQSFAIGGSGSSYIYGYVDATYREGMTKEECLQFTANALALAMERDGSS

CC(C)N(Cc1nc(CCl)no1)C(=O)COc1ccc(Br)cc1 [Compound 31]
Inhibition of post-acid activity (NI) [1]: NI | Inhibition of trypsin-like activity (NI) [2]: NI | EC50 (HEK-293 cells): 16.1 ± 0.5 µM | IC50 [3]: 2.69 ± 0.22 µM

Cc1cccc(-c2noc(CN(C(=O)COc3ccc(C(C)C)cc3)C(C)C)n2)c1 [Compound 2]
Inhibition of trypsin-like activity (NI) [4]: NI | EC50 (HeLa cells): 32 ± 3.6 µM | IC50 [5]: ~1 µM | Inhibition of post-acid activity (NI) [6]: NI

C=CCOc1ccc(C(=O)N(Cc2nc(-c3ccc(OC)c(OC)c3)no2)C(C)C)cc1 [Compound 19]
Activation × of trypsin-like activity ([4]; 100 μM compound, fold activation): Activation × 11.5 (100 μM) | EC50 (HEK-293 cells): 39.2 ± 2 µM | IC50 [7]: 3.51 ± 0.12 µM | Inhibition of post-acid activity (NI) [6]: NI

COc1ccc(-c2noc(CN(C(=O)COc3cccc(C)c3)C(C)C)n2)cc1 [Compound 13]
Inhibition of human cathepsin B (in words) (human cathepsin B): no inhibition | % inhibition (inhibitor concentration) on trypsin-like activity ([4]; 100 μM inhibitor): 28% (100 μM) | IC50 [5]: 2.33 ± 0.28 µM | Inhibition of post-acid activity (NI) [6]: NI

O=C(Cc1cccc2ccccc12)Nc1cccc(-c2nnc(-c3ccccc3)o2)c1 [Compound 21]
Inhibition of trypsin-like activity (NI) [4]: NI | EC50 (HEK-293 cells): 26 ± 2.3 µM | IC50 [7]: 144 ± 22 µM | inhibition at 100 µM ([6]; 100 μM inhibitor, read-out: % inhibition (inhibitor concentration) on post-acid activity): 22%

Cc1ccc(-c2noc(CN(C(=O)COc3ccc(C(C)C)cc3)C(C)C)n2)cc1 [Compound 1]
Inhibition of trypsin-like activity (NI) [4]: NI | EC50 (HeLa cells): 44 ± 3.8 µM | IC50 [5]: ~7 µM | Inhibition of post-acid activity (NI) [6]: NI

CC(C)C[C@@H](C=O)NC(=O)[C@H](CC(C)C)NC(=O)[C@H](CC(C)C)NC(=O)OCc1ccccc1 [MG132] (Cbz-Leu-Leu-Leu-aldehyde)
Accumulation of ubiquitinylated proteins (anti-ubiquitin Western blot) [8]: induce an accumulation of ubiquitinalyted proteins
